Measured values reported in paper PMC10221314 (Pharmaceuticals, 2023).

Columns and labels:
[1] = biological target: T1, FXR (Homo sapiens, UniProt Q96RI1); assay: Yeast one-hybrid assay of FXR antagonistic activity in HEK-293T cells; assay type: cell-based
T1 construct: a fusion plasmid of Gal4 DBD-NR-LBD, which included PPARα, PPARβ, PPARγ, RXRα, RXRβ, RXRγ, LXRα, LXRβ, GPBAR, PXR, and FXR; expressed in transfected cells; host or cells: HEK-293T
T1 sequence (Q96RI1 262-486 limits assumed): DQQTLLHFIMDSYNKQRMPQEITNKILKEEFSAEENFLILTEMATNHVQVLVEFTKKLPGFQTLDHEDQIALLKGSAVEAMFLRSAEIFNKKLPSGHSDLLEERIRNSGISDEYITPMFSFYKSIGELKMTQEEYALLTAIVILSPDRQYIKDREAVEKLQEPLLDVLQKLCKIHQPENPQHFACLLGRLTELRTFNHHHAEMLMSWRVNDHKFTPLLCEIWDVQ
Description: Cell counting: HEK-293T cells in logarithmic growth phase were digested with 0.25% trypsin, collected, and centrifuged. The trypsin-containing medium was discarded, and 2 mL of fresh phenol red-free DMEM medium containing 5% fetal bovine serum was added. The cells were then mixed with the medium to prepare a cell suspension and counted on a cell counting plate.
Cell plating: A determined number of cells were taken from the cell suspension, diluted with phenol red-free DMEM medium containing 5% fetal bovine serum, and plated at a concentration of 10,000 cells per well (100 µL medium) in a 96-well plate. The plate was then incubated at 37 °C and 5% CO2 for 24 h.
Cell transfection: Fresh phenol red-free DMEM medium was taken in a sterile environment, and the previously extracted pFXR-Binding plasmid and PG4.35[luc2P-9XGA4UAS-Hygro] plasmid were added. The mixture was stirred and allowed to stand at 23 °C for 3 min. Then, a 3% amount of transfection reagent was added to the mixture, and it was allowed to stand at 23 °C for 15 min. The mixture was then added to the 96-well plate at a volume of 10 µL per well and incubated at 37 °C in a 5% CO2 environment for 24 h.
The OA derivatives were prepared as 10 mM DMSO stock solutions and further diluted in a concentration gradient, with 10 µL added to each well. The final concentrations of the derivatives ranged from 10 µM to 0.03 µM, with 7 concentration gradients using […] dilution. The test was set with 3 duplicated wells.
Antagonism activity test: The firefly-Renilla Dual Fluorescence Assay Kit (Promega, #E2940, Madison, WI, USA) was used to measure the antagonism activity of the OA derivatives. Firstly, the firefly fluorescence reagent was added to the 96-well plate at a volume of 70 µL per well and shaken in darkness for 15 min. Then, the fluorescence intensity was measured at a wavelength of 645 ± 30 nm in a microplate reader (BioTek, Winooski, VT, USA). Next, the volume of Renilla reagent was added to the 96-well plate at a volume of 70 µL per well and shaken in darkness for 15 min. The fluorescence intensity was then measured at a wavelength of 525 ± 20 nm.
Data processing: The fluorescence data of firefly were divided by the fluorescence data of Renilla to remove errors, and the antagonism efficiency was calculated using the following formula: antagonism efficiency (%) = [1 − (FCompds. − FDMSO)/(FCDCA − FDMSO)] × 100%. In the formula, F represents fluorescence intensity. The antagonistic efficiency data were obtained as a concentration–effect curve using Graphpad Prism 8.0 software, and the corresponding IC50 value was calculated.

[2] = system: BDL rats; assay: Bile duct ligation (BDL) rat model; assay type: in vivo; conditions: 100 mg·kg-1 oral, 14 days
Description: Cells and liver tissue samples were subjected to RNA extraction and purification, followed by reverse transcription of equal amounts of total RNA into […] using a Transcriptor First Strand cDNA Synthesis Kit (Roche). The relative expression levels of the target gene were determined using TaqMan probe/primers with an ABI Q3 quantitative real-time PCR system, while GAPDH/Gapdh was utilized as an internal control for mRNA expression. The fold change in the expression of the target mRNA was calculated using Equation 2^−ΔΔCt.
The study involved 24 rats that were randomly assigned to 1 of 3 groups, including sham, BDL-N.S., and BDL-10b-100mg·kg^−1, ensuring 8 animals per group using Research Randomizer (RRID: SCR_008563). Of the 24 rats, 16 underwent BDL surgery, wherein the choledochal duct was ligated with surgical sutures after administering isoflurane anesthesia. After 24 h, the BDL rats were randomly divided into […] and received daily gavages of either normal saline (BDL-NS group) or 100 mg·kg^−1 of compound 10b suspended in 0.5% sodium carboxymethylcellulose solution (BDL-10b groups) for 14 days. A healthy control group was established with eight rats undergoing sham surgery. Bodyweights were measured daily, and blood samples were collected from the abdominal aorta after an overnight fast. Euthanasia was performed using isoflurane, following which bile was collected using a syringe, and liver tissue samples were collected. Some of the samples were fixed with 4% paraformaldehyde for subsequent histological examination, while others were stored at −80 °C for further analysis.
Kits purchased from Zhongsheng Beikong Biotechnology (Beijing, China) were used to measure the serum concentrations of alanine aminotransferase, aspartate aminotransferase, alkaline phosphatase, γ-glutamyl transpeptidase, total cholesterol, total triglyceride, low-density lipoprotein (LDL), high-density lipoprotein (HDL) cholesterol, lactate dehydrogenase, total bile acid, and total bilirubin. The samples were analyzed on a Hitachi 7100 Analyzer.
The liver tissue was fixed with formalin, embedded in paraffin, and sectioned. The sections were stained with H&E, Oil Red, Masson’s, and Sirius Red. Liver necrosis, inflammation, bile duct proliferation, hepatic steatosis, and lobule inflammation were evaluated on a scale of 1–5 in a blinded manner using a Leica DM1000 microscope. Five randomly selected manifold area fields of vision were used to quantify the red area in each field of vision (eight in each group), which was counted using ImageJ software. The liver hydroxyproline concentration was determined using kits from Nanjing, China, in accordance with the manufacturer’s instructions.

With `CC1(C)CCC2(C(=O)O)CCC3(C)C(C(OC(=O)CCC(NC(=O)OC(C)(C)C)C(=O)OC(C)(C)C)CC4C5(C)CCC(O)C(C)(C)C5CCC43C)C2C1` [Compound 10b, 3β-hydroxy-12β-(4′-((tert-butoxycarbonyl)amide)-5′-(tert-butoxy)-L-glutamte)oxy-13H-olean-28-oic acid] the IC50 ([1]; HEK-293T cells, CDCA (50 μM) as agonist, mean ± SE of three independent tests) was 440 ± 150 nM, the “times more potent than 10d” value ([1]; ratio of IC50 values) was 8.3 and the “Bile TBA” value [2] was 249.4 ± 103.67 µmol/L. For the same compound, the “Bile TBiL” value [2] was 5.8 ± 2.46 µmol/L, the “Serum ALP” value [2] was 391.33±52.42 U·L-1 and the “Serum HDL” value [2] was 0.29 ± 0.06 mmol/L. For the same compound, the “Serum LDL” value [2] was 1.06 ± 0.22 mmol/L, the “Serum γ-GT” value [2] was 37.5±6.74 U·L-1 and the “Urine TBA” value [2] was 15.38 ± 5.76 µmol/L. The “Urine TBiL” value [2] was 5.33 ± 1.50 µmol/L, the “expression of fibrogenic genes Col1a1, Acta2, Tgfb1, Mmp2, Timp1, Itgav, Ctgf in rat liver (qRT-PCR)” value [2] was “reduced” and the “liver collagen accumulation (Sirius red staining)” value [2] was “significantly attenuated”. The “pathological impairments (bile duct hyperplasia, parenchymal necrosis, inflammation; H&E)” value [2] was “substantially reduced” and the “liver necrosis scores (blinded assessment)” value ([2]; vs BDL rats) was “significantly lower”.
